The record followed here is patent US10577382B2, “Fused heterocyclic compound” (TAKEDA PHARMACEUTICAL COMPANY LIMITED, priority 2016, dated 2020).

Each structure is given as a SMILES string.

This assay deals with HCT116 cells. Briefly: Growth inhibitory activity using HCT116 cells (Cell Titer-Glo). In kind it is cell-based, human. The settings on record: Homo sapiens, HCT-116, 72 h, compound 1 μM, 3 days, read-out: Cell growth inhibition ratio at compound concentration of 1 μM. On the procedure:
HCT 116 cells (ATCC) were seeded in a 384-well plate at a density of 6×10^2 cells/well, and cultured overnight in a cell culture medium McCoy's 5A (Thermo Fisher Scientific) containing 10% FBS (fetal bovine serum) and 1% penicillin/streptomycin. The dissolved test compound was added in the cell medium, and the cell medium was left standing in a CO2 incubator (37° C.) for 3 days. A Cell Titer-Glo solution (Promega Corporation) was added, the mixture was stirred at room temperature for 10 minutes, and the emission value was measured by Envision (PerkinElmer). The inhibition ratio (%) of HCT116 cell growth by the test compound was calculated in accordance with the following expression. Inhibition ratio (%)=(1−(count of test compound−blank)÷(control−blank))×100
The count of the HCT116 cell suspension without addition of the compound was described as a control, and the count without addition of the compound and addition of HCT116 cells was described as a blank. The concentration at which the inhibition ratio was 50% was defined as an IC50 value.

As for `COc1ncnn2ccc(-c3cnc4nc(C)n(Cc5nnc([C@@H](C)F)o5)c4c3)c12` [Example 286, 1-((5-((1R)-1-fluoroethyl)-1,3,4-oxadiazol-2-yl)methyl)-6-(4-methoxypyrrolo[2,1-f][1,2,4]triazin-5-yl)-2-methyl-1H-imidazo[4,5-b]pyridine], the inhibition at 1 µM is 95%.
